Like-named read-outs stand apart in the source and are kept apart here. Where a SMILES comes first, the peptide text is derived from it. [ ]: non-standard residue; d: D form. 2Nal = N[C@@H](Cc1ccc2ccccc2c1)C(=O)O; dNle = CCCC[C@@H](N)C(=O)O; βAla = NCCC(=O)O
Experiments:
SSP-25 cells = assay: xCELLigence cell death assay in SSP-25 cells (cellular assay for RAD51 inhibition); assay type: cell-based; details: concentration gradient added at 20 hour mark, only values with R^>0.85 shown
fresh human RBCs = assay type: cell-based; details: red cells of human, 1 h, 250
Description: To assess the nonspecific lytic properties of each compounds disclosed herein, each mentioned compound was tested for hemolytic properties against fresh human RBCs. Briefly, donor blood was drawn into a K2EDTA anticoagulant tube from multiple O+ donors. The blood was washed 3 times in PBS. RBCs were diluted to 2% in PBS and compounds were added at various concentrations. Samples were incubated at 37 C for 1 hr, then centrifuged at 2200 rpm for 5 min. Supernatants were measured for absorbance at 450 nm or 405 nm. The percentage hemolysis was calculated as lysis relative to 1% Triton X-100 incubation.

A549 cells [1] = assay: A549 cell growth/death, xCELLigence and microscopy; assay type: cell-based; details: xCELLigence, concentration gradient
Description: To assess the growth inhibitory properties of compounds disclosed herein, 10 μM of Compound 1 was tested against a PBS mock treatment for growth of A549 cells using microscopy at the indicated timepoints shown in the top right corner of each panel of FIG. 2. […] First, 5,000 A549 cells were plated, and adherence and growth was measured for 20 hours using live measurements of current impedance through the plate using the xCELLigence™ instrument. At the […] mark, a concentration gradient of Compound 1 or a PBS control was added to the A549 cells, which were cultured in 100 μL DMEM media with 10% FBS.

primary fibroblasts = assay: Selective killing, Cytation imaging of primary fibroblasts; assay type: cell-based; details: 10 μM, approx. 5 minute time points
Description: To assess the specificity of compounds disclosed herein in targeting cancers with overexpression of RAD51, Compound 1 was tested against primary fibroblasts and SSP25 cells (cholangiocarcinoma cell line) (FIG. 5). First, 5,000 cells were incubated in 96-well culture plates overnight. Cells were grown in DMEM or RPMI, respectively, with 10% FBS, and […] was added to a concentration of 10 μM and imaging commenced using a Cytation™ instrument using approximately 5 minute time points. DAPI was used to visualize the nuclei and mitotracker-red was used to observe mitochondria. […] Furthermore, cell morphology was affected within 5 minutes of imaging, and the macrobubble phenotype was stable for further periods of time.

SSP25 cells = assay: xCELLigence cell death assay with intracellular calcium chelators; assay type: cell-based; details: relative to compound alone
Description: To investigate the hypothesis that peptide treatment of cells causes cell death via increases in intracellular free calcium levels, Compound 1 alone and in combination with two different intracellular calcium chelators (1,2-Bis(2-aminophenoxy)ethane-N,N,N′,N′-tetraacetic acid tetrakis(acetoxymethyl ester) aka “BAPTA-AM”, and ammoniated ruthenium oxychloride aka “ruthenium red”) was tested in an xCELLigence™ cell death assay as in Example 1. The intracellular calcium chelators alone were also evaluated on the cells.

A549 cells [2] = assay: Intracellular calcium imaging with Fluo-2-AM; assay type: cell-based; details: 30 μM compound, pre-incubation with 2.5 μM Fluo-2-AM
From the text: Timestamps for the duration of the experiment are indicated in each panel.

[3] = Mouse pharmacokinetics, IV and IP dosing; assay type: in vivo, mice
Description: The pharmocokinetic parameters in mice by both intravenous (IV) and intraperitoneal (IP) dosing, as well as the serum and microsome stability for each of compound 22, 23, 24, and 25 was determined. Bioanalytical methods were developed for each compound using an LC-MS/MS method with LLOQ>100 ng/ml.
For in-vivo PK work, at least 3 mice were used per timepoint. For each compound, the animals were injected either IV or IP with the compound. IV injections used 1 mg/kg, and IP injections were at 15 mg/kg. Blood was collected at the indicated timepoints and analyzed according to the bioanalytical method developed.

A549 xenograft = A549 xenograft in athymic nude mice, compound 22; assay type: in vivo; details: 15 mpk IP every other day
Description: The anti-cancer activity of compound 22 was assessed in an A549 xenograft model in a method similar to Example 4. Briefly, A549 cells were implanted into athymic nude female mice. Tumors were allowed to grow to 100 mm^3 before initiation of dosing. Mice were randomly distributed into dosing groups with at least 3 animals per group. Mice were dosed using 15 mpk TP injections every other day.
Tumor volumes and mouse weights were recorded at the indicated timepoints. Terminal tumors were excised and weighed (N=3 for each group).

in vitro [4] = details: mouse, serum
Description: Serum stability data was obtained using the appropriate animal serum, each incubated with the compound for up to two hours at 37 C.

in vitro [5] = details: human, microsomes
Description: (§1) For HLM and MLM stability studies, each compound was incubated with the liver microsome mixture for up to an hour at 37 C in the presence of NADPH.
(§2) After the incubations, the reactions were stopped and the compounds were analyzed according to the method developed for each.

in vitro [6] = details: mouse, microsomes
Description: as §1, §2

In the case of CSCC[C@@H](NC(=O)[C@@H](CC(C)C)NC(C)=O)C(=O)N[C@H](CCCNC(=N)N)C(=O)N[C@H](CO)C(=O)N[C@H](CCC(N)=O)C(=O)N[C@H](CCCNC(=N)N)C(=O)N[C@H](CC(C)C)C(=O)N[C@H](CCCNC(=N)N)C(=O)N[C@H](CCC(N)=O)C(=O)NCC(=O)N[C@H](CC(C)C)C(=O)N[C@H](CCCNC(=N)N)C(=O)N[C@H](CCCCN)C(=O)N[C@H](CCCNC(=N)N)C(=O)N[C@H](CCCNC(=N)N)C(=O)N[C@H](CCCNC(=N)N)C(=O)N[C@H](CCCNC(=N)N)C(=O)N[C@H](CCCNC(=N)N)C(=O)N[C@H](CCCNC(=N)N)C(=O)N[C@H](CCCNC(=N)N)C(N)=O [Compound 2, Ac-lmrsqrlrqGlrkrrrrrrr-NH2], the IC50 (SSP-25 cells) is reported as 4220 µM, the “% Hemolysis (250 uM)” value (fresh human RBCs) is reported as 1% and the “effect on growth / cell death of A549 cells” value (A549 cells [1]) is reported as “rapid cell death (decrease in cell index)”. The “cell morphology / cell death in primary fibroblasts” value (primary fibroblasts) was “little cell death is generated in the primary fibroblast cells compared to the SSP25 cells”, the “cell death with added calcium chelator BAPTA-AM” value (SSP25 cells; 10 μM compound + 10 μM BAPTA-AM) was “able to counteract the cell-death inducing effects” and the “cell death with added calcium chelator ruthenium red” value (SSP25 cells; 10 μM compound + 40 μM Ruthenium red) was “able to counteract the cell-death inducing effects”. The “intracellular calcium (Fluo-2 dye)” value (A549 cells [2]) was “shows accumulation in response to treatment”.

For CCCC[C@@H](NC(=O)[C@@H](CC(C)C)NC(C)=O)C(=O)N[C@H](CCCNC(=N)N)C(=O)NCCC(=O)N[C@@H](C(=O)N[C@H](CCCNC(=N)N)C(=O)N[C@H](CC(C)C)C(=O)N[C@H](CCCNC(=N)N)C(=O)N[C@@H](C(=O)NCCC(=O)N[C@H](CC(C)C)C(=O)N[C@H](CCCNC(=N)N)C(=O)N[C@H](CCCCN)C(=O)N[C@H](CCCNC(=N)N)C(=O)N[C@H](CCCNC(=N)N)C(=O)N[C@H](CCCNC(=N)N)C(=O)N[C@H](CCCNC(=N)N)C(=O)N[C@H](CCCNC(=N)N)C(=O)NCC(=O)N[C@@H](Cc1ccc2ccccc2c1)C(N)=O)C(C)C)C(C)C [Compound 22, Ac-l{d-norLeucine}r[beta-ALA]vrlrv[beta-ALA]lrkrrrrrGΦ-NH2] (Ac-[dL][dNle][dR][βAla][dV][dR][dL][dR][dV][βAla][dL][dR][dK][dR][dR][dR][dR][dR]G[2Nal]-NH2), the IC50 (SSP-25 cells) was 18 µM, the “% Hemolysis (250 uM)” value (fresh human RBCs) was 5% and the “AUC Extr” value ([3]; 1 mg/kg IV) was 19.8%. It also gave a Vss ([3]; 15 mg/kg IP) of 1.19 L/kg, an AUC(0-inf) ([3]; in vivo, 1 mg/kg IV) of 0.0793 µg·h/mL and an AUC(0-t) ([3]; in vivo, 1 mg/kg IV) of 0.0639 µg·h/mL. For the same molecule, the C0 ([3]; in vivo, 1 mg/kg IV) was 0.514 µg/mL, the MRT inf ([3]; in vivo, 1 mg/kg IV) was 0.158 h and the clearance ([3]; in vivo, 1 mg/kg IV) was 13.3 L/h/kg. For the same molecule, the AUC(0-inf) ([3]; in vivo, 15 mg/kg IP) was 0.463 µg·h/mL, the MRT inf ([3]; in vivo, 15 mg/kg IP) was 48.3 h and the half-life ([3]; in vivo, ip, 15 mg/kg, 15 mg/kg IP, read-out: t½ (converted)) was 36.3 min. The half-life ([3]; in vivo, ip, 15 mg/kg, IP (15 mg/kg), read-out: Half-life Mouse IP) was 36.3 min, the Vd ([3]; in vivo, iv, 1 mg/kg, 1 mg/kg IV, read-out: Vss) was 1.87 L/kg and the Vd ([3]; in vivo, iv, 1 mg/kg, 1 mg/kg IV, read-out: Vz) was 2.04 L/kg. The half-life ([3]; in vivo, iv, 1 mg/kg, 1 mg/kg IV, read-out: t½ (converted)) was 7.14 min, the half-life ([3]; in vivo, iv, 1 mg/kg, IV (1 mg/kg), read-out: Half-life Mouse IV) was 7.16 min and the tumor growth (A549 xenograft) was “effective to reduce tumor growth”. The half-life (in vitro [4]) was over 500 min, the half-life (in vitro [5]) was 365 min and the half-life (in vitro [6]) was over 500 min.

Reference: patent US12590126B2, “Compounds for selective disruption of protein-protein interactions” (SyntheX, Inc., priority 2017, dated 2026)
